Reference: paper PMC4392994, “Kinetic Characterization and Effect of Immobilized Thermostable β-Glucosidase in Alginate Gel Beads on Sugarcane Juice” (ISRN Biochemistry, 2014)

Tested on: T1, β-glucosidase
T1 construct: recombinant, cloned and expressed in E. coli DH5alpha; extracellular, from culture supernatant; partially purified (ammonium sulfate, dialysis); EC 3.2.1.21
Experiment: p-nitrophenol release at […] nm, Lineweaver-Burk plot
Type: biochemical, Bacillus subtilis
Settings: free enzyme, partially purified; acetate buffer 100 mM, pH 5.0, 60 °C, 30 min; 1–15 mM substrate

- Km: 3.6 mM
Structure (SMILES): O=[N+]([O-])c1ccc(O[C@@H]2O[C@H](CO)[C@@H](O)[C@H](O)[C@H]2O)cc1 [pNPG]
